Assay results: paper PMC3530532, “Corticosteroid-Binding Globulin: Structure-Function Implications from Species Differences” (PLoS ONE, 2012)
Numbering of substitutions follows the chain as printed.

Columns and labels:
Type in all cases: binding
Conditions in all cases: ITC, 25°C
[1] = molecular target: T1, Rat CBG-RCL1 (Rattus norvegicus, UniProt P31211, A357V/P358T); experiment: Isothermal titration calorimetry, steroid titrated to uncleaved rat CBG-RCL1
T1 construct: residues 5 to 374 of rat CBG (P31211); GST (N, cleaved yes); made in house; host or cells: E. coli BL21 Star (DE3)
T1 sequence (P31211 27-396 A357V/P358T): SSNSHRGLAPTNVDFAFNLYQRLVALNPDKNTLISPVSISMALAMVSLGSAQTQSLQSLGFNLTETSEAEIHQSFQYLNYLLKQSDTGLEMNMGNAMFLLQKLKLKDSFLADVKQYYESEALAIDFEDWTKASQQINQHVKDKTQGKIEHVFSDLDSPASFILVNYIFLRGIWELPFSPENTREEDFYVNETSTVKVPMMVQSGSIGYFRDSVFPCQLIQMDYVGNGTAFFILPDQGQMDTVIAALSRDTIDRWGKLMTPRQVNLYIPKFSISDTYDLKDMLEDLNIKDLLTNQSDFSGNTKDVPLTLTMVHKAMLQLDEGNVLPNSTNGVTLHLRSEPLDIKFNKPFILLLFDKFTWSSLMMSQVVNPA
Experimental: (§1) The coding sequences of residues 11 to 383 of human CBG (Swiss-Prot entry P08185) and residues 5 to 374 of rat CBG (P31211) were cloned into a pGEX-2T vector (GE Healthcare, Uppsala), yielding N-terminal glutathione-S-transferase (GST) fusion proteins. Mutations were introduced using a two-stage PCR procedure based on the QuikChange (Stratagene, Santa Clara) site-directed mutagenesis protocol. All experiments with human CBG were conducted with a mutant in which surface residue Lys126 was replaced by alanine in order to facilitate crystallization. Wild-type rat CBG (rat CBG-WT) and rat CBG mutants CBG-RCL1, CBG-RCL2 and CBG-RCL3 were produced to probe the function of the RCL residues in rat CBG. All gene constructs were confirmed by DNA sequencing prior to protein production.
(§2) The GST-tagged human and rat CBG variants were produced in E. coli BL21 Star™ (DE3) cells (Invitrogen, Carlsbad) using the ZYM-5052 auto-inducing medium. For each variant, 10 L of ZYM-5052 medium containing 100 µg/mL ampicillin were inoculated with an overnight culture of a single clone. The flasks were incubated at 37°C until the optical density at 600 nm reached 0.3. The temperature was then lowered to 20°C, and the cells were allowed to grow for an additional 20 h. The pellet was resuspended in PBS buffer (pH 7.4) containing 5 mM EDTA after cell harvesting (4 mL of buffer per gram of pellet).
(§3) The protein samples were dialyzed against ITC buffer (20 mM potassium phosphate, 50 mM NaCl, pH 7.4) and titrated with steroids in a VP-ITC microcalorimeter (Microcal, Piscataway). All solutions were filtered (0.2 µm filter pore size) and degassed for 30 min prior to the titration experiments. The sample cell was filled with protein solution containing 15 µM rat CBG or 20 µM human CBG and titrated with steroid solutions containing 150 µM and 200 µM ligand, respectively. The titrations consisted of an initial injection of 2 µL followed by 25 consecutive injections of 10 µL ligand solution at 25°C. A spacing of 240 sec between the injections was used to allow a return to the baseline. Data points from the initial injection, which are generally affected by diffusion during the initial equilibration period after experiment setup, were discarded prior to data analysis. […] The binding curve was generated by plotting the heats of injections against the ratio of ligand to protein in the cell. Integrated heat data were analyzed using nonlinear regression fit with a one-site-binding model in the Origin-7™ software provided with the VP-ITC. Changes in the free energy and entropy can be calculated using the equation: ΔG° = −RTlnK = ΔH°−TΔS°. In this equation ΔG° is the change in Gibbs free energy, R the universal gas constant, T the temperature, and K the association constant. […]

[2] = molecular target: T2, Human CBG-WT (Homo sapiens, UniProt P08185, K148A); experiment: Isothermal titration calorimetry, steroid titrated to uncleaved human CBG-WT
T2 construct: residues 11 to 383 of human CBG (Swiss-Prot entry P08185); GST (N, cleaved yes); made in house; host or cells: E. coli BL21 Star (DE3)
T2 sequence (P08185 33-405 K148A): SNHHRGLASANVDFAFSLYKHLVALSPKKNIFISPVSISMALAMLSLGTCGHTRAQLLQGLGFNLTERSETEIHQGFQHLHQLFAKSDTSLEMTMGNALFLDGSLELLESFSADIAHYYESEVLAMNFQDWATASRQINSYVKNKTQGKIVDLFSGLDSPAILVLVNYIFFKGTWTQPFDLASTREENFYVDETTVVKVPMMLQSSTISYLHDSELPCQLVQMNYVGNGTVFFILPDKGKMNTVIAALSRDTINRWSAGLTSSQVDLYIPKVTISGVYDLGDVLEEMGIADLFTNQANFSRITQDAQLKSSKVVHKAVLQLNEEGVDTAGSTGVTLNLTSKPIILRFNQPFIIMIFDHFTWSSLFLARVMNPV
Experimental: as §1, §2, §3

[3] = molecular target: T3, Rat CBG-WT (Rattus norvegicus, UniProt P31211); experiment: Isothermal titration calorimetry, steroid titrated to rat CBG-WT
T3 construct: residues 5 to 374 of rat CBG (P31211); GST (N, cleaved yes); made in house; host or cells: E. coli BL21 Star (DE3)
T3 sequence (P31211 27-396): T1 sequence (P31211 27-396 A357V/P358T) with V331A, T332P
Experimental: as §1, §2
The protein samples were dialyzed against ITC buffer (20 mM potassium phosphate, 50 mM NaCl, pH 7.4) and titrated with steroids in a VP-ITC microcalorimeter (Microcal, Piscataway). All solutions were filtered (0.2 µm filter pore size) and degassed for 30 min prior to the titration experiments. The sample cell was filled with protein solution containing 15 µM rat CBG or 20 µM human CBG and titrated with steroid solutions containing 150 µM and 200 µM ligand, respectively. The titrations consisted of an initial injection of 2 µL followed by 25 consecutive injections of 10 µL ligand solution at 25°C. A spacing of 240 sec between the injections was used to allow a return to the baseline. Data points from the initial injection, which are generally affected by diffusion during the initial equilibration period after experiment setup, were discarded prior to data analysis. […] The binding curve was generated by plotting the heats of injections against the ratio of ligand to protein in the cell. Integrated heat data were analyzed using nonlinear regression fit with a one-site-binding model in the Origin-7™ software provided with the VP-ITC. Changes in the free energy and entropy can be calculated using the equation: ΔG° = −RTlnK = ΔH°−TΔS°. In this equation ΔG° is the change in Gibbs free energy, R the universal gas constant, T the temperature, and K the association constant. The change in enthalpy is denoted as ΔH°, and ΔS° is the change in entropy under standard conditions. The data shown in Table 2 were obtained from single titrations of each complex.

`C[C@]12CCC(=O)C=C1CC[C@@H]1[C@@H]2[C@@H](O)C[C@@]2(C)[C@H]1CC[C@]2(O)C(=O)CO` [Hydrocortisone] was tested, and the “TΔS°” value [1] was -29.02 kcal/mol, the “ΔG°” value [1] was -9.61 kcal/mol and the “ΔH°” value [1] was -38.62 kcal/mol. For the same compound, the Kd ([1]; single titration) was 0.095 ± 0.007 µM, the Kd ([2]; single titration, uncleaved human CBG-WT (K126A, E. coli produced)) was 0.045 ± 0.007 µM and the “TΔS°” value ([2]; uncleaved human CBG-WT) was -26.08 kcal/mol. The “ΔG°” value ([2]; uncleaved human CBG-WT) was -10.1 kcal/mol, the “ΔH°” value ([2]; uncleaved human CBG-WT) was -36.14 kcal/mol and the “TΔS°” value ([3]; rat CBG-WT) was -20.3 kcal/mol. The “ΔG°” value ([3]; rat CBG-WT) was -9.44 kcal/mol, the “ΔH°” value ([3]; rat CBG-WT) was -29.78 kcal/mol and the Kd ([3]; single titration, uncleaved rat CBG-WT) was 0.122 ± 0.006 µM.
